Assays:
[1] = tested on: GABAA receptor alpha4beta1delta (Homo sapiens); experiment: Positive allosteric modulation of human recombinant alpha4beta1delta GABAA receptor expressed in HEK293 cells assessed as GABA-induced response in presence of GABA EC20 by FMP assay
[2] = biological target: Gamma-aminobutyric acid receptor subunit alpha-4/beta-1/delta (Homo sapiens, UniProt O14764+P18505+P48169); experiment: Positive allosteric modulation of human recombinant alpha4beta1delta GABAA receptor expressed in delta-HEK cells assessed as potentiation of GABA-induced response in presence of GABA EC20 by FMP assay; type: cell-based, HEK293
Gamma-aminobutyric acid receptor subunit alpha-4/beta-1/delta, sequence (P48169 whole entry): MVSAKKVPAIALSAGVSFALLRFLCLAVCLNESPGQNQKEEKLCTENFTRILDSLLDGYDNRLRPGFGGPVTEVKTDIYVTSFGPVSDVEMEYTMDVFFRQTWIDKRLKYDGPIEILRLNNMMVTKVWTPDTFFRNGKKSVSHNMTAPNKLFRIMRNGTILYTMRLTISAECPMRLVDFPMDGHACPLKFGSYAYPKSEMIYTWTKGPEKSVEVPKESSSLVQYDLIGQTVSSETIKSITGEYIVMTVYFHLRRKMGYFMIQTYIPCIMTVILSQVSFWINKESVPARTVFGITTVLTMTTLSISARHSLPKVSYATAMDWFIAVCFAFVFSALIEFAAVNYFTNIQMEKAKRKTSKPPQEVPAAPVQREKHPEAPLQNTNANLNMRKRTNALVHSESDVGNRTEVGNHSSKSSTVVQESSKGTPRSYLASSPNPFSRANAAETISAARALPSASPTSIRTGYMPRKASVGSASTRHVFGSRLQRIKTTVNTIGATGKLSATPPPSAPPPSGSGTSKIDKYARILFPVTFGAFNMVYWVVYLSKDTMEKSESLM
Gamma-aminobutyric acid receptor subunit alpha-4/beta-1/delta, sequence (O14764 whole entry): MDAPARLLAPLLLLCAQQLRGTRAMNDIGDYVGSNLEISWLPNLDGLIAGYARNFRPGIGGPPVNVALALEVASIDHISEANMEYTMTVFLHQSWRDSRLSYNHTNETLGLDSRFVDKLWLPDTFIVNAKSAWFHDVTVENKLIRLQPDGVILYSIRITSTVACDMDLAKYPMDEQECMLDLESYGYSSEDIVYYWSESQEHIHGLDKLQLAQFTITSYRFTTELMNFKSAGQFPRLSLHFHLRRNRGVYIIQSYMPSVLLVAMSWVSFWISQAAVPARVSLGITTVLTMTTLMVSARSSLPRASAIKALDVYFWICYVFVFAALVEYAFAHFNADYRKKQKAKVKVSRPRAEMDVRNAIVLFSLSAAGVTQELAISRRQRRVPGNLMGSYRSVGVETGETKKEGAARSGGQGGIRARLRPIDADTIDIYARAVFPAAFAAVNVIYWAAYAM
Gamma-aminobutyric acid receptor subunit alpha-4/beta-1/delta, sequence (P18505 whole entry): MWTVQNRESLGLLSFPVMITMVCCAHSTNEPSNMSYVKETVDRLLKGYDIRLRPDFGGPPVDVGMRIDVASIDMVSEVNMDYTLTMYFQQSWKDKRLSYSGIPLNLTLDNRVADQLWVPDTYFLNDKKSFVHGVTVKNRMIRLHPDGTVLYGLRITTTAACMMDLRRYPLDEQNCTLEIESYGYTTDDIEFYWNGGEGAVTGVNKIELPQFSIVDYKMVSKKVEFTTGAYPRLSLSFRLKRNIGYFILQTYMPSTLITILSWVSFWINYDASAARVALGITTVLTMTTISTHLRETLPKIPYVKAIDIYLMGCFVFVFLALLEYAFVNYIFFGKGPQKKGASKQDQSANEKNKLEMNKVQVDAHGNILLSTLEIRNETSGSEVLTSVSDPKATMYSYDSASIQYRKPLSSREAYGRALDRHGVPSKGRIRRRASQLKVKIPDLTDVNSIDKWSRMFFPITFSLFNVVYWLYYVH

[3] = Solubility of compound; type: physicochemical

EC50 [1] | EC50 [2] | solubility [3] | Compound
1.91 µM | 1.92 µM | – | O=C(Nc1c(-c2cccs2)nc2ccc(F)cn12)c1ccc(Cl)cc1
0.0603 µM | 0.06 µM | – | O=C(Nc1c(-c2cccs2)nc2ccc(Br)cn12)c1ccc(Cl)cc1
0.145 µM | 0.14 µM | – | O=C(Nc1c(-c2cccs2)nc2ccc(Cl)cn12)c1ccc(Cl)cc1
– | – | Insoluble | Clc1ccc(-c2noc(-c3c(-c4ccccc4)nc4ccccn34)n2)cc1
0.977 µM | 0.98 µM | – | O=C(Nc1c(-c2cccs2)nc2ccccn12)c1ccc(Cl)cc1
1.1 µM | 1.1 µM | – | O=C(Nc1c(-c2cccs2)nc2ccc(C(F)(F)F)cn12)c1ccc(Cl)cc1

Compound | EC50 [1] | EC50 [2] | solubility [3]
Cc1ccc2nc(-c3cccs3)c(NC(=O)c3ccc(Cl)cc3)n2c1 | 0.162 µM | 0.16 µM | –

— ChEMBL document CHEMBL5055624, “Structural Determinants for the Mode of Action of Imidazopyridine DS2 at δ-Containing γ-Aminobutyric Acid Type A Receptors” (J Med Chem, 2021)
